Data from patent US6670364B2, “Antagonists of MCP-1 function and methods of use thereof” (Telik, Inc., priority 2001, dated 2003).
Counter-ions that a name gives are not always drawn.

Test system: ICR male mice
Assay: Thioglycollate-induced inflammation model (Example 18)
Type: in vivo
Details: 2 mg/kg s.c., repeated immediately after broth injection and 3 h later; peritoneal cavity at 72 h; mouse
Experimental: 3% Brewer's thioglycollate broth (Difco, Detroit, Mich.) was injected into the peritoneal cavity of ICR male mice, followed by subcutaneous administration of the test compound. The same dose of test compound was again administered immediately after the broth injection and 3 h later. After 72 h, the number of total elicited cells and MOMA2-positive cells in the peritoneal cavity was analyzed using an EPICS XL Beckman Coulter.

Row | Compound | MOMA2-positive Cells (× 10^6) | Total Cells (× 10^6)
1 | Cc1nn(C)c2ncc(C(=O)NC(=O)Nc3ccc(C(=O)N4CCN(C)CC4)c(Cl)c3)c(N3CCN(C)CC3)c12 [Compound 97] | 4.1 ± 0.3 × 10^6 | 6.4 ± 0.6 × 10^6

Same assay, conditions: 10 mg/kg s.c., repeated immediately after broth injection and 3 h later; peritoneal cavity at 72 h; mouse

Row | Compound | MOMA2-positive Cells (× 10^6) | Total Cells (× 10^6)
2 | Cc1nn(C)c2nc(N(C)CCN(C)C)c(C(=O)NC(=O)Nc3cccc(OC(C)C)c3)cc12 [Compound 140] | 5.2 ± 0.6 × 10^6 | 7.3 ± 1.1 × 10^6
3 | Cc1nn(C)c2nc(N(C)CCN(C)C)c(C(=O)NC(=O)Nc3ccc(F)c(C(F)(F)F)c3)cc12 [Compound 116, (6-{[2-(Dimethylamino)ethyl]methylamino}-1,3-dimethylpyrazolo[5,4-b]-pyridin-5-yl)-N-({[4-fluoro-3-(trifluoromethyl)phenyl]amino}carbonyl)-carboxamide hydrochloride] | 3.0 ± 0.8 × 10^6 | 4.2 ± 1.1 × 10^6

Test system: female Lewis rats
Assay: Collagen-induced arthritis model in rat, p.o. (Example 24)
Type: in vivo
Details: 2 mg/kg p.o. twice a day from day 0
Experimental: Collagen-induced arthritis was induced in female Lewis rats as follows. Rats were injected subcutaneously with the emulsion of bovine collagen type 11 (3.3 mg/kg at day 0 and 1.67 mg/kg at day 7) and complete Freund's adjuvant (CFA) at the base of the tail at day 0 and immunized additionally at day 7. The test compounds were administered p.o. at day 0 and then twice a day for 21 days or 3 times a week until day 21 was also administered p.o. from day 13 to day 21 in another group. Paw swelling was measured by the increased volume of the legs using a plethysmometer.

Row | Compound | Percent Swelling day 14 [%] | Percent Swelling day 21 [%]
4 | Cc1nn(C)c2nc(N(C)CCN(C)C)c(C(=O)NC(=O)Nc3cccc(OC(C)C)c3)cc12 [Compound 140] | 14.2 ± 3.3 | 49.2 ± 14.1

Same assay, conditions: 10 mg/kg p.o. from day 13 to day 21

Row | Compound | Percent Swelling day 14 [%] | Percent Swelling day 21 [%]
5 | Cc1nn(C)c2nc(N(C)CCN(C)C)c(C(=O)NC(=O)Nc3cccc(OC(C)C)c3)cc12 [Compound 140] | 10.1 ± 1.6 | 73.5 ± 6.3

Same assay, conditions: 10 mg/kg p.o. twice a day from day 0

Row | Compound | Percent Swelling day 14 [%] | Percent Swelling day 21 [%]
6 | Cc1nn(C)c2nc(N(C)CCN(C)C)c(C(=O)NC(=O)Nc3cccc(OC(C)C)c3)cc12 [Compound 140] | 7.5 ± 1.0 | 28.0 ± 6.4

Biological target: hMCP-1 (Homo sapiens, UniProt P13500)
Assay: Inhibition of MCP-1-induced chemotaxis (48-well chamber, Example 21)
Type: cell-based
Set-up: purchased PeproTech
Details: THP-1 cells, 2.5 nM hMCP-1, 48-well chamber, 2 hr
Experimental: A 48-well microchemotaxis chamber with a 5 μm-pore size, PVP-coated polycarbonate filter membrane (Neuro Probe Inc., Cabin John, Md.) was used for testing. Compounds were prepared as 10 mM stock solution in DMSO. THP-1 cells were washed with RPMI 1640 medium supplemented with 0.5% BSA and 25 mM HEPES, pH 7.4, and suspended at a density of 4×10^6 cells/mL in the same medium. A 150 μL aliquot of this suspension was treated with an equal volume of test compound solution and the mixture incubated at 37° C. for 15 min. The lower chamber was loaded with 26 μL of a 2.5 nM solution of hMCP-1 (PeproTech) in medium. The filter membrane was placed over the lower chamber, followed by a silicon rubber gasket and the upper chamber. A 50 μL aliquot of the THP-1 cell suspension containing the test compound was added to the upper chamber and the assembly incubated in a 5% CO2 atmosphere at 37+ C. for 2 hr. The chamber was then disassembled and the cells remaining on the upper surface of the filter were scrapped off with a rubber scrapper. The filter was fixed with methanol, stained with Diff-Quik solution, and mounted on a slide glass. The cells that had migrated across the filter onto the lower surface were then counted by microscopic observation.

Chain of hMCP-1 (P13500 24-99): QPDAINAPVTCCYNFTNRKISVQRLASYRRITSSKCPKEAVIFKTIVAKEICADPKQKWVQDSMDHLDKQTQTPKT

Row | IC50 [µM] | Compound
7 | 2 | Cc1nn(C)c2ncc(C(=O)NC(=O)Nc3ccc(F)c(C(F)(F)F)c3)c(N3CCN(c4ccccc4)CC3)c12 [Compound 103, [1,3-Dimethyl-4-(4-phenylpiperazinyl)pyrazolo[5,4-b]pyridin-5-yl]-N-({[4-fluoro-3-(trifluoromethyl)phenyl]amino}carbonyl)carboxamide]
8 | 10 | Cc1nn(C)c2ncc(C(=O)NC(=O)Nc3ccc(F)c(C(F)(F)F)c3)c(N3CCOCC3)c12 [Compound 65, (1,3-Dimethyl-4-morpholin-4-ylpyrazolo[5,4-b]pyridin-5-yl)-N-({[4-fluoro 3-(trifluoromethyl)phenyl]amino}carbonyl)carboxamide]
9 | 3.6 | Cc1nn(C)c2ncc(C(=O)NC(=O)Nc3cccc(C(F)(F)F)c3)c(N3CCN(C)CC3)c12 [Compound 72]
10 | 1.7 | Cc1nn(C)c2ncc(C(=O)NC(=O)Nc3cccc(C(F)(F)F)c3)c(N3CCN(C)CC3)c12 [Compound 73]
11 | 4 | Cc1nn(C)c2ncc(C(=O)NC(=O)Nc3ccc(Cl)cc3)c(N3CCN(C)CC3)c12 [Compound 70]
12 | 1.2 | Cc1nn(C)c2ncc(C(=O)NC(=O)Nc3ccc(F)c(C(F)(F)F)c3)c(NCCC34CCCN3CCC4)c12 [Compound 60, {1,3-Dimethyl-4-[(2-perhydropyrrolizin-7a-ylethyl)amino]pyrazolo[5,4-b]pyridin-5-yl}-N-({[4-fluoro-3-(trifluoromethyl)phenyl]amino}carbonyl)carboxamide hydrochloride]
13 | 0.4 | Cc1nn(C)c2ncc(C(=O)NC(=O)Nc3ccc(F)c(C(F)(F)F)c3)c(-[n+]3ccc(N)cc3)c12 [Compound 106, 4-Amino-1-{5-[N-({[4-fluoro-3-(trifluoromethyl)phenyl]amino}carbonyl)carbamoyl]-1,3-dimethylpyrazolo[5,4-b]pyridin-4-yl}pyridinium chloride]
14 | 8.2 | Cc1nn(C)c2ncc(C(=O)NC(=O)Nc3ccc(F)c(C(F)(F)F)c3)c(N(C)C)c12 [Compound 44, [4-(Dimethylamino)-1,3-dimethylpyrazolo[5,4-b]pyridin-5-yl]-N-({[4-fluoro-3-(trifluoromethyl)phenyl]amino}carbonyl)carboxamide]
15 | 4 | Cc1ccc(NC(=O)NC(=O)c2cnc3c(c(C)nn3C)c2N2CCN(C)CC2)cc1C(F)(F)F [Compound 83]
16 | 4 | Cc1nn(C)c2ncc(C(=O)NC(=O)Nc3ccc(Cl)c(Cl)c3)c(N3CCN(C)CC3)c12 [Compound 71]
17 | 1.8 | Cc1nn(C)c2ncc(C(=O)NC(=O)Nc3ccc(F)c(C(F)(F)F)c3)c(N3CCNCC3)c12 [Compound 67]
18 | 0.7 | Cc1nn(C)c2ncc(C(=O)NC(=O)Nc3cccc(OC(C)C)c3)c(N3CCN(C)CC3)c12 [Compound 75]
19 | 20 | Cc1nn(C)c2ncc(C(=O)NC(=O)Nc3ccc(F)c(C(F)(F)F)c3)c(NCc3ccccc3)c12 [Compound 61]
20 | 1.2 | Cc1nn(C)c2ncc(C(=O)NC(=O)Nc3ccc(C(=O)N4CCOCC4)c(Cl)c3)c(N3CCN(C)CC3)c12 [Compound 94]
21 | 2 | Cc1nn(C)c2ncc(C(=O)NC(=O)Nc3ccc(F)c(C(F)(F)F)c3)c(N3CCCN(C)CC3)c12 [Compound 108, [1,3-Dimethyl-4-(4-methyl(1,4-diazaperhydroepinyl))pyrazolo[5,4-b]pyridin-5-yl]-N-({[4-fluoro-3-(trifluoromethyl)phenyl]amino}carbonyl)carboxamide hydrochloride]
22 | 3 | Cc1nn(C)c2ncc(C(=O)NC(=O)Nc3cc(C(F)(F)F)cc(C(F)(F)F)c3)c(N3CCN(C)CC3)c12 [Compound 91]

Row | IC50 [µM] | Compound
23 | 4 | Cc1nn(C)c2ncc(C(=O)NC(=O)Nc3ccc(O)c(C(F)(F)F)c3)c(N3CCN(C)CC3)c12 [Compound 87]
24 | 4 | Cc1nn(C)c2ncc(C(=O)NC(=O)Nc3cccc(Br)c3)c(N3CCN(C)CC3)c12 [Compound 69]
25 | 4 | Cc1nn(C)c2ncc(C(=O)NC(=O)Nc3cccc(C(C)C)c3)c(N3CCN(C)CC3)c12 [Compound 74]
26 | 1.6 | Cc1nn(C)c2ncc(C(=O)NC(=O)Nc3ccc(F)c(C(F)(F)F)c3)c(N(CCO)CCO)c12 [Compound 51, {4-[Bis(2-hydroxyethyl)amino]-1,3-dimethylpyrazolo[5,4-b]pyridin-5-yl}-N-({[4-fluoro-3-(trifluoromethyl)phenyl]amino}carbonyl)carboxamide]
27 | 4 | Cc1nn(C)c2ncc(C(=O)NC(=O)Nc3cccc(Cl)c3)c(N3CCN(C)CC3)c12 [Compound 68]
28 | 0.9 | Cc1nn(C)c2ncc(C(=O)NC(=O)Nc3cccc(-c4nccs4)c3)c(N3CCN(C)CC3)c12 [Compound 78]
29 | 4 | Cc1nn(C)c2ncc(C(=O)NC(=O)Nc3cccc(-c4ccccc4)c3)c(N3CCN(C)CC3)c12 [Compound 80]
30 | 1.1 | Cc1nn(C)c2ncc(C(=O)NC(=O)Nc3ccc(C(=O)N4CCN(C)CC4)c(Cl)c3)c(N3CCN(C)CC3)c12 [Compound 97]
31 | 4 | Cc1nn(C)c2ncc(C(=O)NC(=O)Nc3ccc(C(=O)O)c(OC(C)C)c3)c(N3CCN(C)CC3)c12 [Compound 76]
32 | 2 | Cc1nn(C)c2ncc(C(=O)NC(=O)Nc3ccc(F)c(C(F)(F)F)c3)c(N3CCCCC3)c12 [Compound 64, (1,3-Dimethyl-4-piperidylpyrazolo[5,4-b]pyridin-5-yl)-N-({[4-fluoro-3-(trifluoromethyl)-phenyl]amino}carbonyl)carboxamide]
33 | 1.9 | Cc1nn(C)c2ncc(C(=O)NC(=O)Nc3ccc(Cl)c(C(=O)N4CCOCC4)c3)c(N3CCN(C)CC3)c12 [Compound 95]
34 | 7.7 | Cc1nn(C)c2ncc(C(=O)NC(=O)Nc3ccc(F)c(C(F)(F)F)c3)c(O)c12 [Compound 43, N-({[4-fluoro-3-(trifluoromethyl)phenyl]amino}carbonyl)(4-hydroxy-1,3-dimethylpyrazolo[5,4-b]pyridin-5-yl)carboxamide]
35 | 2.1 | Cc1nn(C)c2ncc(C(=O)NC(=O)Nc3ccc(Cl)c(C(=O)OC(C)C)c3)c(N3CCN(C)CC3)c12 [Compound 92]
36 | 2 | Cc1nn(C)c2ncc(C(=O)NC(=O)Nc3ccc(F)c(C(F)(F)F)c3)c(NCCN(C)C)c12 [Compound 46, (4-{[2-(Dimethylamino)ethyl]amino}-1,3-dimethylpyrazolo[5,4-b]pyridin-5-yl)-N-({[4-fluoro-3-(trifluoromethyl)phenyl]amino}carbonyl)carboxamide hydrochloride]
37 | 0.7 | Cc1nn(C)c2ncc(C(=O)NC(=O)Nc3cccc(OC(F)(F)F)c3)c(N3CCN(C)CC3)c12 [Compound 77]
38 | 4 | Cc1nn(C)c2ncc(C(=O)NC(=O)Nc3cc(O)cc(C(F)(F)F)c3)c(N3CCN(C)CC3)c12 [Compound 89]

Row | Compound | IC50 [µM]
39 | [4-(4-Ethylpiperazinyl)-1,3-dimethylpyrazolo[5,4-b]pyridin-5-yl]-N-({[4-fluoro-3-(trifluoromethyl)phenyl]amino}carbonyl)carboxamide hydrochloride [Compound 100] | 0.38
